Results from US6828450B2, “Triptycene analogs” (Kansas State University Research Foundation, priority 2000, dated 2004).
Where two headings read alike, the source gives them in different places.

Key:
HL-60-RV cells [1] = experiment: cells; assay type: cell-based, human; conditions: for IC50: read-out: IC50, decrease of HL-60-RV cell viability
Excerpt: (§1) The MDR HL-60-RV and HL-60-R8 cells were developed in Melvin S. Center's laboratory (Kansas State University) and similarly maintained in RPMI 1640 medium in the absence of drugs (Marsh W, et al, Cancer Res 46: 4053-4057, 1986; McGrath T et al, and Center M S: Biochem Biophys Res Commun 145: 1171-1176, 1987; Marsh W and Center M S: Cancer Res 47: 5080-5086, 1987; McGrath T, et al, Biochem Pharmacol 38: 3611-3619, 1989; Marquardt D, et al, Cancer Res 50: 1426-1430, 1990; Marquardt D and Center M S: J Natl Cancer Inst 83: 1089-1109, 1991; Krishnamachary N and Center M S; Cancer Res 53: 3658-3661, 1993). Every 4 weeks, these HL-60-RV and HL-60-R8 sublines were exposed to 41 nM DAU for 48 h to stabilize their MDR phenotype. This concentration of DAU, which is not cytotoxic to MDR HL-60 sublines, was removed from the culture medium at least 48 h before experimentation. […] RFs were determined by dividing the IC50 of the MDR cells by that of the sensitive WT parent cell line.

HL-60-S cells [2] = experiment: HL-60-S cell proliferation assay; assay type: cell-based, human
Excerpt: as §1

HL-60-RV cells [3] = experiment: Nucleoside transport in HL-60-RV cells; assay type: cell-based, human; conditions: for IC50: 15-min preincubation, 30 s
Excerpt: (§2) FIG. 15. Comparison of the concentration-dependent inhibitions of the cellular transport of purine (A) and pyrimidine (B) nucleosides by DAU (open symbols) and TT2 (closed symbols) in HL-60-S (circles), HL-60-RV (squares) and HL-60-R8 (triangles) cells in vitro. Results are expressed as % of ^3H-adenosine (26,032±2,239 cpm, 100±9%, striped area in A) and ^3H-thymidine (17,934±1,398 cpm, 100±8%, striped area in B) transported into vehicle-treated control cells over 30 s.
as §1
L1210 cells (about 1.5×10^6 cells/0.5 ml) were preincubated for 15 min at 37° C. in the presence or absence of TTs and then exposed to 1 μCi of ^3H-thymidine for only 30 sec to assess the cellular uptake of nucleoside over such very short period of time. HL-60-S, HL-60-RV and HL-60-R8 cells (1.2×10^6 cells/0.5 ml) were preincubated for 15 min at 37° C. in the presence or absence (control) of drugs and then exposed to 1 μCi of [2,8-^3H]adenosine (30 Ci/mmol; American Radiolabeled Chemicals, St. Louis, Mo.) or [methyl-^3H]thymidine (50 Ci/mmol; Amersham, Arlington Heights, Ill.) for only 30 s to, respectively, assess the cellular uptake of purine and pyrimidine nucleosides over such very short period of time Reactions were diluted with 2 ml of ice-cold Ca^2+/Mg^2+-free Dulbecco's phosphate buffered saline (PBS) and the unincorporated radiolabel was removed by centrifugation at 200×g for 10 min. […] Cell lysates were mixed with 9 ml of Bio-Safe II (Researeh Products International) and counted to estimate the cellular uptake of ^3H-thymidine. Drug inhibition was expressed as % of ^3H-thymidine or ^3H-adenosine transported into vehicle-treated control cells over similar 30-sec period.

HL-60-S cells [4] = experiment: Nucleoside transport in HL-60-S cells; assay type: cell-based, human; conditions: for IC50: 15-min preincubation, 30 s
Excerpt: as §2, §1
L1210 cells (about 1.5×10^6 cells/0.5 ml) were preincubated for 15 min at 37° C. in the presence or absence of TTs and then exposed to 1 μCi of ^3H-thymidine for only 30 sec to assess the cellular uptake of nucleoside over such very short period of time. […] Cell lysates were mixed with 9 ml of Bio-Safe II (Researeh Products International) and counted to estimate the cellular uptake of ^3H-thymidine. Drug inhibition was expressed as % of ^3H-thymidine or ^3H-adenosine transported into vehicle-treated control cells over similar 30-sec period.

[5] = system: Plasmodium falciparum 3D7; experiment: Antimalarial activity, inhibition of Plasmodium falciparum 3D7; assay type: cell-based; conditions: malaria strain 3D7
HL-60-RV cells [6] = experiment: HL-60-RV (MDR) cell proliferation assay; assay type: cell-based, human; conditions: for IC50: read-out: IC50, inhibition of HL-60-RV cell proliferation
Excerpt: as §1

L1210 cells = experiment: Mitotic index of L1210 cells; assay type: cell-based, murine; conditions: 24 h; for decrease of the % of mitotic cells: DAU 0.256-1.6 μM, highest concentrations of TT2 tested
Description: FIG. 18. Effects of the novel TT analog TT2 and DAU on the mitotic index of L1210 cells in vitro. […] Cells (10^6/0.5 ml of RPMI 1640 medium) were incubated in triplicate for 24 h at 37° C. in the presence or absence (control) of 0.256, 0.64, 1.6 and 4 μM TT2, 0.256, 0.64 and 1.6 μM DAU, 0.2 μM VCR or 1 μM H10. After fixation with MeOH:acetic acid (3:1) and staining with 0.1% crystal violet, about 500 cells/slide were scored for mitotic figures and the mitotic index was expressed as the % of mitotic cells in drug-treated cultures divided by the % of mitotic cells in non-treated controls. The mean % of mitotic cells in control at 24 h was 1.86±0.43%.
L1210 cells (about 1×10^6/0.5 ml of FCS-containing RPMI 1640 medium) were incubated in triplicate for 24 h at 37° C. in the presence or absence of TTs or known antimitotic drugs, and collected by centrifugation at 200×g for 10 min to determine their mitotic index. For hypotonic treatment, cells were resuspended in 1 ml of 75 mM KCl for 20 min at 4° C. After fixation in 1 ml of MeOH:acetic acid (3:1), the final cell pellets were collected by centrifugation, resuspended in 75 μl of MeOH:acetic acid (3:1), dispensed onto glass slides, air dried, and stained by spreading 40 μl of 0.1% crystal violet under a coverslip. The % of cells in mitosis was determined microscopically by counting 500 cells/slides. The mitotic index was calculated as the % of mitotic cells in drug-treated cultures divided by the % of mitotic cells in non-treated controls.

HL-60-R8 cells = experiment: HL-60-R8 (MDR) cell proliferation assay; assay type: cell-based, human; conditions: read-out: IC50, inhibition of HL-60-R8 cell proliferation
Excerpt: as §1

[7] = HL-60-RV and HL-60-R8 vs HL-60-S, day 2
[8] = HL-60-RV and HL-60-R8 vs HL-60-S, day 4
[9] = HL-60-RV and HL-60-R8 vs HL-60-S

In the case of `COC1=CC(=O)C2=C(C1=O)C1C3=C(C(=O)C=CC3=O)C2c2ccccc21` (stereo not shown) [TT2, 2-Methoxy-9,10-dihydro-9,10-[1′,2′]benzenoanthracene-1,4,5,8-tetraone], the “RFs, cell viability (IC50 of MDR cells / IC50 of WT HL-60-S)” value (HL-60-RV cells [1]; [7]) is reported as 0.9-1.2, the “RFs, cell viability (IC50 of MDR cells / IC50 of WT HL-60-S)” value (HL-60-RV cells [1]; [8]) is reported as 1.5 and the IC50 (HL-60-RV cells [1]; day 2) is reported as 1100 nM. For the same compound, the IC50 (HL-60-RV cells [1]; day 4) was 340 nM, the “times TT2 inhibits tumor cell growth less effectively than DAU” value (HL-60-S cells [2]; HL-60-S) was 33 times and the IC50 (HL-60-S cells [2]; HL-60-S, HL-60-RV and HL-60-R8, day 4, read-out: IC50 values, inhibition of cell proliferation, range over the three lines) was 260 to 300 nM. The IC50 (HL-60-S cells [2]; day 2, read-out: IC50, inhibition of HL-60-S cell proliferation) was 400 nM, the IC50 (HL-60-S cells [2]; day 4, read-out: IC50, inhibition of HL-60-S cell proliferation) was 300 nM and the “RFs, nucleoside transport” value (HL-60-RV cells [3]; HL-60-RV and HL-60-R8 vs HL-60-S, adenosine and thymidine) was 1.0-1.2. It also gave an IC50 (HL-60-RV cells [3]; purine nucleoside, read-out: IC50, cellular transport of 3H-adenosine in HL-60-RV cells) of 3200 nM, an IC50 (HL-60-RV cells [3]; pyrimidine nucleoside, read-out: IC50, cellular transport of 3H-thymidine in HL-60-RV cells) of 2000 nM and an IC50 (HL-60-S cells [4]; purine nucleoside, read-out: IC50, cellular transport of 3H-adenosine in HL-60-S cells) of 3300 nM. For the same compound, the IC50 (HL-60-S cells [4]; pyrimidine nucleoside, read-out: IC50, cellular transport of 3H-thymidine in HL-60-S cells) was 2000 nM, the IC50 [5] was 8 µM and the “RFs, tumor cell growth, viability and DNA synthesis together” value (HL-60-RV cells [6]; [9]) was 0.9-1.5. The “RFs, cell proliferation (IC50 of MDR cells / IC50 of WT HL-60-S)” value (HL-60-RV cells [6]; [7]) was 0.9-1.3, the “RFs, cell proliferation (IC50 of MDR cells / IC50 of WT HL-60-S)” value (HL-60-RV cells [6]; [8]) was 0.9-1.0 and the IC50 (HL-60-RV cells [6]; day 2) was 500 nM. The IC50 (HL-60-RV cells [6]; day 4) was 260 nM, the “effect on the mitotic index” value (L1210 cells) was “does not increase” and the “decrease of the % of mitotic cells” value (L1210 cells) was 38-48%. It also gave an IC50 (HL-60-R8 cells; day 2) of 350 nM and an IC50 (HL-60-R8 cells; day 4) of 290 nM.

With `COC1=C(Br)C(=O)C2=C(C1=O)C1C3=C(C(=O)C=C(N(C)C)C3=O)C2c2ccccc21` (stereo not shown) [TT16, 2-Bromo-3-methoxy-6-(dimethylamino)-9,10-dihydro-9,10-[1′,2′]benzenoanthracene-1,4,5,8-tetraone] the IC50 [5] was 5.6 µM.

In the case of `COc1cccc2c1C(=O)c1c(O)c3c(c(O)c1C2=O)C[C@@](O)(C(C)=O)C[C@@H]3O[C@H]1C[C@H](N)[C@H](O)[C@H](C)O1` [DAU, daunomycin, reference compound], the “times less potent as cytotoxic agent in MDR than in WT HL-60 cells” value (HL-60-RV cells [1]; [9]) is reported as “about 28 times”, the “RFs, cell viability (IC50 of MDR cells / IC50 of WT HL-60-S)” value (HL-60-RV cells [1]; [7]) is reported as 23.8-31.3 and the “RFs, cell viability (IC50 of MDR cells / IC50 of WT HL-60-S)” value (HL-60-RV cells [1]; [8]) is reported as 25.3-30.0. The IC50 (HL-60-RV cells [1]; Homo sapiens, 96 h) was 450 nM, the IC50 (HL-60-S cells [2]; Homo sapiens, 48 h, read-out: IC50, inhibition of HL-60-S cell proliferation) was 14 nM and the IC50 (HL-60-S cells [2]; Homo sapiens, 96 h, read-out: IC50, inhibition of HL-60-S cell proliferation) was 9 nM. The “effect on nucleoside transport in the two MDR sublines” value (HL-60-RV cells [3]; HL-60-RV and HL-60-R8) was “unable”, the “effect on nucleoside transport in WT HL-60-S cells” value (HL-60-S cells [4]) was “fails to significantly inhibit” and the “times less effective as cytostatic agent in MDR than in WT HL-60 cells” value (HL-60-RV cells [6]; [9]) was “about 30 times”. The “RFs, cell proliferation (IC50 of MDR cells / IC50 of WT HL-60-S)” value (HL-60-RV cells [6]; [7]) was 22.9-35.7, the “RFs, cell proliferation (IC50 of MDR cells / IC50 of WT HL-60-S)” value (HL-60-RV cells [6]; [8]) was 25.0-30.6 and the IC50 (HL-60-RV cells [6]; Homo sapiens, 48 h) was 500 nM. For the same compound, the IC50 (HL-60-RV cells [6]; Homo sapiens, 96 h) was 275 nM, the “decrease of the % of mitotic cells” value (L1210 cells) was 74-91% and the IC50 (HL-60-R8 cells; Homo sapiens, 48 h) was 320 nM. The IC50 (HL-60-R8 cells; Homo sapiens, 96 h) was 225 nM.
